According to patent EP1056700B1, “MEDICINAL USES OF PHENYLALKANOLS AND DERIVATES” (ZingoTX Pty Ltd, priority 1997, dated 1999):

Assays:
[1] = test system: Cyclo-oxygenase (COX); test: Cyclo-oxygenase assay in RBL 2H3 cells (PGD2 EIA); assay type: cell-based, rat; conditions: final concentration of 10 µM
Description: Cyclo-oxygenase (COX) assay was performed with cells in culture prepared from rat basophilic leukemia (RBL) 2H3 cell lines. Cells were cultured in EMEM containing 10% fetal calf serum and antibiotic until cells reached confluence. Harvested cells were subsequently seeded on 24-well plates at 1 x 10^6 cells/ml then incubated at 37°C for 3 hours. Cells were washed twice with incubation buffer (1.5 ml) containing 5 mM Hepes, 140 mM NaCl, 5 mM KCl, 0.6 mM MgCl2, 1 mM CaCl2 and […]. Cells were then covered with 0.49 ml of buffer, followed by addition of samples/solvents (0.005 ml) and incubated at 37 °C for 5 min on an orbital shaker. Arachidonic acid (0.005 ml, containing 50% EtOH) was subsequently added, and the plate was incubated at similar conditions for a further 10 min. The supernatant (0.1 ml) was aliquoted for methoxime derivatisation of PGD2, which was carried out by heating the supernatant with methoxime solution (1:1) at 60 °C for 30 min according to the instructions provided with the kit. The resultant solution was diluted with EIA buffer and stored on ice for EIA, following the protocol provided with the kit.
Validation of COX enzyme activity was carried out using EIA in which the enzyme activity was characterised against various concentrations of AA and a time course of enzyme activity.
[…] Indomethacin was used as reference compound. The concentration of DMSO in the assay was maintained at 1.5%.

[2] = molecular target: T1, SR Ca^2+-ATPase (Canis lupus familiaris, UniProt O46674); test: Sarcoplasmic reticulum Ca^2+-ATPase assay; assay type: biochemical, dog; conditions: for IC50: read-out: SR Ca^2+-ATPase IC50 = conc. for 50% inhibition; for SR Ca^2+-ATPase Activity: 0 µM = 100, dog cardiac SR
T1 construct: Effect of gingerols and their derivatives on the Ca^2+-ATPase activity of dog cardiac SR; from tissue; host or cells: dog heart (cardiac sarcoplasmic reticulum)
Description: A portion at each concentration (54 µl) was aliquoted into 4 designated wells of the microplate (two of four wells were controls). Each well was mixed with ATP solution (20 mM, 6 µl), except the controls, using an 8 channel pipette. The controls were assayed in the absence of ATP or calcium.
The plate was incubated with the lid on, for 30 min at 37°C, colour reagent (160 µl) was then added and mixed with citrate solution (34%, 30 µl). The plate was developed at room temperature for 30 min then absorbance at 655 nm was read from the microplate reader. The Ca^2+-ATPase activity was quantitated, from a Pi standard curve, as concentration of liberated inorganic phosphate.
Stock solutions (10 mM) of test substance were prepared in DMSO, then series dilutions were made either in DMSO or in 1M HEPES to produce the dose-response concentrations. The maximum concentration of DMSO in the final assay solution was 2.5%.
Each concentration of test substance was assayed in duplicate in the presence and absence of ATP or calcium. Phosphate standards are run on each plate as follows:
Effect of gingerols and their derivatives on the Ca^2+-ATPase activity of dog cardiac SR.

[3] = molecular target: T2, Lipoxygenase (LP) (Rattus norvegicus, UniProt P12527); test: Lipoxygenase assay with cell-free enzyme from RBL 2H3 cells (EIA); assay type: biochemical; conditions: final concentration of 10 µM
T2 construct: cell-free enzyme (Wong et al, 1991) prepared from rat basophilic leukemia (RBL) 2H3 cell lines; endogenous in cells; host or cells: RBL 2H3 (rat basophilic leukemia), 15,000 g supernatant of cells disrupted by nitrogen cavitation
T2 sequence (P12527 1-673): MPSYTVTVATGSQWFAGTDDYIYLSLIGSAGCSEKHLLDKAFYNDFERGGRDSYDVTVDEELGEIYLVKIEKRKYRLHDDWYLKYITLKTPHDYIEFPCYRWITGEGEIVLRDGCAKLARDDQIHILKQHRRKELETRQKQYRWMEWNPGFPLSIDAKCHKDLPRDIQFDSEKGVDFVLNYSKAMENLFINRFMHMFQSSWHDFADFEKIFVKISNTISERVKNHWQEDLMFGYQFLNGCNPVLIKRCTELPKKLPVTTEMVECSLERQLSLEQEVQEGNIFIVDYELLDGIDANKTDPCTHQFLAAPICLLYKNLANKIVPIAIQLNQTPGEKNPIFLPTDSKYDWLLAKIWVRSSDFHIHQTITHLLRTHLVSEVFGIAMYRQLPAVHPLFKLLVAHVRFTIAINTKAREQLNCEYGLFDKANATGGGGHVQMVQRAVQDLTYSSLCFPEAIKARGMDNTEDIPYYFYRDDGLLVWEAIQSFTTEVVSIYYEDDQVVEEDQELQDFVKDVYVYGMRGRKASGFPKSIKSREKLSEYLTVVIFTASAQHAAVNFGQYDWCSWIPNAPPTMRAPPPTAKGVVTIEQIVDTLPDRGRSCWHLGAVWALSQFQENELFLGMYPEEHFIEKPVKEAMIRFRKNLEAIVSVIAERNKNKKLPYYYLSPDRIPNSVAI
Procedure, shortened: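 Cell-free enzyme from the 15,000 g supernatant of nitrogen-cavitated RBL 2H3 cells, preincubated 5 min with compound at 10 µM final (1.5% DMSO) in Hepes pH 7. Reaction started with CaCl2, ATP, PAF and arachidonic acid and run 8 min at room temperature; product quantified by EIA.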

[4] = test system: guinea pig atria; test: Organ bath assay on isolated guinea pig atria (rate and force of contraction); conditions: for FORCE OF CONTRACT^n / HEART RATE: result in words
Procedure, shortened: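 Atria from 3-4-week-old male guinea pigs mounted in Krebs-Henseleit solution gassed with carbogen, under 1 g tension, stabilised 20 min. Rate and force of contraction recorded. Compounds in DMSO tested up to 50 µM maximum, final DMSO 2.5 %.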

T1 sequence (O46674 whole entry): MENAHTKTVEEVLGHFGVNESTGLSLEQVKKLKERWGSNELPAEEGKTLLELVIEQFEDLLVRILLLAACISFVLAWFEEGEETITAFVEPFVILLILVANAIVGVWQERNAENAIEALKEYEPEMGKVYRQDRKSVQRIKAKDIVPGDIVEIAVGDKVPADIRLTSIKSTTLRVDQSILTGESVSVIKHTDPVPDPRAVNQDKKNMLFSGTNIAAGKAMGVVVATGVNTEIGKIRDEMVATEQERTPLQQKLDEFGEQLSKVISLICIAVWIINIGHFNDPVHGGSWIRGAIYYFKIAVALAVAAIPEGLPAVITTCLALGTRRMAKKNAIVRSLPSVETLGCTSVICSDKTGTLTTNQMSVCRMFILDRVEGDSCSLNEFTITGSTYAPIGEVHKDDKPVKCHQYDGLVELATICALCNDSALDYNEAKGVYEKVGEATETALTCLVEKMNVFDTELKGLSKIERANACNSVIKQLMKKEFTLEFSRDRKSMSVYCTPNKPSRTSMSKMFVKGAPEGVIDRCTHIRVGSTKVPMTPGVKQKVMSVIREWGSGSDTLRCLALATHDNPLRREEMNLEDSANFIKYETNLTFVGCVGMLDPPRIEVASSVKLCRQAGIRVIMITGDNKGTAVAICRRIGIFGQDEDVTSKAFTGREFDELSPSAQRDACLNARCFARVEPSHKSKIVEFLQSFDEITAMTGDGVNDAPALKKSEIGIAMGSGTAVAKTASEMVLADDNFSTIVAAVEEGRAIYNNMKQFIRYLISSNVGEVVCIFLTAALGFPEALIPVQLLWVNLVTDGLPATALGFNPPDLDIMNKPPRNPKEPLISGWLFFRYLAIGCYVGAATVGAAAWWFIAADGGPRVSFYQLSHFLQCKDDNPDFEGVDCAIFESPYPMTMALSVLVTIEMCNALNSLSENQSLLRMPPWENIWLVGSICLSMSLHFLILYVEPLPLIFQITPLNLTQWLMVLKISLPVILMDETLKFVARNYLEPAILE

| Compound | SR Ca^2+-ATPase ↑ increase or stimulation ([2]; @ 50 µM) | IC50 [2] [µM] | activity at 10 µM [3] [%] | Cyclooxygenase activity % activity [1] [%] | FORCE OF CONTRACT^n ([4]; guinea pig atria) | HEART RATE ([4]; guinea pig atria) | SR Ca^2+-ATPase Activity ([2]; 1 µM) | SR Ca^2+-ATPase Activity ([2]; 5 µM) | SR Ca^2+-ATPase Activity ([2]; 10 µM) | SR Ca^2+-ATPase Activity ([2]; 25 µM) | SR Ca^2+-ATPase Activity ([2]; 50 µM) | further results |
| --- | --- | --- | --- | --- | --- | --- | --- | --- | --- | --- | --- | --- |
| CCCCCCCC(O)CC(O)CCc1ccc(O)c(OC)c1 (stereo not shown) [[8]-gingerdiol, 1-(4-hydroxy-3-methoxyphenyl)dodecane-3,5-diol, reference compound] | ↑54% @ 50 | > 100 | 26 | 10 | inactive | inactive | – | – | – | – | – | – |
| CCCCCCCCCC(O)CCc1ccc(O)c(OC)c1 (stereo not shown) [1-(4-hydroxy-3-methoxyphenyl)dodecan-3-ol] | – | 50 to 100 | 31 | 9 | – | – | – | 102 | 108 | 140 | 101 | SR Ca^2+-ATPase Activity ([2]; 100 µM): 98; SR Ca^2+-ATPase Activity ([2]; 200 µM): 16; SR Ca^2+-ATPase ↑ increase or stimulation ([2]; @ 25 µM): ↑40% @ 25; FORCE OF CONTRACT^n ↑ increase ([4]; @ 10 (µM), guinea pig atria): ↑180% @ 10; HEART RATE ↑ increase ([4]; @ 10 (µM), guinea pig atria): ↑50% @ 10; increase on driven guinea pig left atria ([4]; at 1 µM, followed by arrhythmia): 50%; potency of one enantiomer versus the other in increasing the force of contraction ([4]; guinea pig atria): 100 fold; arrhythmia ([4]; guinea pig atria, after addition of a dose): followed by arrhythmia |
| CCCCCCCC(O)CCCCc1ccc(O)c(OC)c1 (stereo not shown) [1-(4-hydroxy-3-methoxyphenyl)dodecan-5-ol] | – | ~25 | 35 | 12 | – | ↑weakly | – | 113 | 136 | 158 | 126 | SR Ca^2+-ATPase Activity ([2]; 100 µM): 87; SR Ca^2+-ATPase Activity ([2]; 200 µM): 18; SR Ca^2+-ATPase ↑ increase or stimulation ([2]; @ 25 µM): ↑57% @ 25; FORCE OF CONTRACT^n ↑ increase ([4]; @ 30 (µM), guinea pig atria): ↑79% @ 30 |
| CCCCCCCC(O)CC(=O)C=Cc1ccc(O)c(OC)c1 (stereo not shown) [[8]-dehydrogingerol, 5-hydroxy-1-(4-hydroxy-3-methoxyphenyl)dodecan-1-ene-3-one, reference compound] | – | ~50 | 37 | 19 | – | – | 93 | 88 | 92 | 95 | 65 | inhibition at 50 µM ([2]; @ 50 µM, read-out: SR Ca^2+-ATPase ↓ decrease or inhibition): 35%; FORCE OF CONTRACT^n ↑ increase ([4]; @ 25 (µM), guinea pig atria): ↑80% @ 25; HEART RATE ↑ increase ([4]; @ 25 (µM), guinea pig atria): ↑17% @ 25; time for tension to reach maximum after addition of a dose ([4]; guinea pig atria): a few mins |
| CCCCCCCC(=O)CC(O)CCc1ccc(O)c(OC)c1 (stereo not shown) [3-hydroxy-1-(4-hydroxy-3-methoxyphenyl)dodecan-5-one] | – | > 100 | 193 | 18 | – | – | – | – | – | – | – | FORCE OF CONTRACT^n ↑ increase ([4]; @ 5 (µM), guinea pig atria): ↑270% @ 5; FORCE OF CONTRACT^n ↑ increase ([4]; @ 10 (µM), guinea pig atria): ↑130% @ 10; HEART RATE ↑ increase ([4]; @ 10 (µM), guinea pig atria): ↑30% @ 10 |
| CCCCCC(O)CC(=O)CCc1ccc(O)c(OC)c1 (stereo not shown) [[6]-gingerol, 5-hydroxy-1-(4-hydroxy-3-methoxyphenyl)decan-3-one, reference compound] | ↑60% @ 50 | > 100 | 202 | 55 | – | – | 121 | 120 | 117 | 137 | 160 | FORCE OF CONTRACT^n ↑ increase ([4]; @ 50 (µM), guinea pig atria): ↑86% @ 50; HEART RATE ↑ increase ([4]; @ 50 (µM), guinea pig atria): ↑10% @ 50 |
| CCCCCCCC(O)CC(=O)CCc1ccc2c(c1)OCO2 (stereo not shown) [5-hydroxy-1-(3,4-methylenedioxyphenyl)dodecan-3-one] | – | – | 107 | 59 | – | – | – | – | – | – | – | – |

Now from value to molecule, other results behind:

| SR Ca^2+-ATPase ↑ increase or stimulation ([2]; @ 50 µM) | IC50 [2] [µM] | activity at 10 µM [3] [%] | Compound | Cyclooxygenase activity % activity [1] [%] | FORCE OF CONTRACT^n ([4]; guinea pig atria) | HEART RATE ([4]; guinea pig atria) | SR Ca^2+-ATPase Activity ([2]; 1 µM) | SR Ca^2+-ATPase Activity ([2]; 5 µM) | SR Ca^2+-ATPase Activity ([2]; 10 µM) | SR Ca^2+-ATPase Activity ([2]; 25 µM) | SR Ca^2+-ATPase Activity ([2]; 50 µM) | further results |
| --- | --- | --- | --- | --- | --- | --- | --- | --- | --- | --- | --- | --- |
| – | ~100 | 65.5 | CCCCCCCC(O)CC(=O)CCc1ccc(O)c(OC)c1 (stereo not shown) [[8]-gingerol, 5-hydroxy-1-(4-hydroxy-3-methoxyphenyl)dodecan-3-one, reference compound] | 16 | – | – | 139 | 158 | 165 | 200 | 139 | SR Ca^2+-ATPase ↑ increase or stimulation ([2]; @ 25 µM): ↑100% @ 25; FORCE OF CONTRACT^n ↑ increase ([4]; @ 3 (µM), guinea pig atria): ↑160% @ 3; HEART RATE ↑ increase ([4]; @ 3 (µM), guinea pig atria): ↑31% @ 3; time to increased cardiac contractility after addition of the drug ([4]; guinea pig atria): 15 s |
| ↑60% @ 50 | > 100 | 450 | CCCCCCCC(O)CC(=O)CCc1ccc(O)cc1 (stereo not shown) [[8]-demethoxygingerol, 5-hydroxy-1-(4-hydroxyphenyl)dodecan-3-one] | 63 | inactive | inactive | – | – | – | – | – | – |
| ↑64% @ 50 | > 100 | 8 | CCCCCCCC(O)CC(=O)CCc1ccc(OC)c(O)c1 (stereo not shown) [[8]-isogingerol, 5-hydroxy-1-(3-hydroxy-4-methoxyphenyl)dodecan-3-one, reference compound] | 23 | inactive | inactive | – | – | – | – | – | – |
| – | ~50 | 175 | CCCCCCCC(O)CC(=O)c1ccc(O)c(OC)c1 (stereo not shown) [3-hydroxy-1-(4-hydroxy-3-methoxyphenyl)decan-1-one] | 123 | negative inotropic activity | negative chronotropic activity | 104 | 152 | 174 | 195 | 180 | SR Ca^2+-ATPase Activity ([2]; 100 µM): 222; SR Ca^2+-ATPase ↑ increase or stimulation ([2]; @ 25 µM, listed as 3-hydroxy-1-(4-hydroxy-3-methoxyphenyl) decan-1-one (3.92)): ↑95% @ 25; SR Ca^2+-ATPase ↑ increase or stimulation ([2]; @ 25 µM, listed as 3.92): 95%; stimulatory activity towards dog heart SR Ca^2+-ATPase ([2]; at 3 µM): 200%; FORCE OF CONTRACT^n ↓ decrease ([4]; @ 10 (µM), guinea pig atria): ↓11% @ 10; HEART RATE ↓ decrease ([4]; @ 10 (µM), guinea pig atria): ↓5% @ 10; FORCE OF CONTRACT^n ↓ decrease ([4]; @ 30 (µM), guinea pig atria): ↓13% @ 30; increase on driven guinea pig left atria ([4]; at 10 µM): 50% |
| – | > 100 | 118 | CCCCCCCC(O)CC(=O)CCc1cccc(OC)c1O (stereo not shown) [[8]-orthogingerol, 5-hydroxy-1-(2-hydroxy-3-methoxyphenyl)dodecan-3-one] | 17 | inactive | inactive | – | – | – | – | – | SR Ca^2+-ATPase ↑ increase or stimulation ([2]; @ 100 µM): ↑40% @ 100 |
